# Laboratory results published in US6717008B2, “Derivatives of C2-substituted indan-1-ol compounds, methods for their preparation and use” (Aventis Pharma Deutschland GmbH, priority 2001, dated 2004).
# Legend:
# female NMRI mice = assay: Anorectic action: cumulative evaporated milk consumption after 24 h feed removal; format: in vivo; details: dose 10 mg/kg, i.p. or po (route not specified), compared with control animals
# Protocol: The anorectic action was tested on female NMRI mice. After removal of feed for 24 hours, the preparation to be tested was administered intraperitoneally (i.p.) or by gavage (po). The animals were housed singly and, with free access to drinking water, they were offered evaporated milk 30 minutes after administration of the preparation. The consumption of evaporated milk was determined and the general behavior of the animals was monitored every half an hour for 7 hours. The measured milk consumption was compared to that of vehicle-treated control animals.
compound,measurement,setting,value
"CC(=O)OC1c2ccc(Cl)cc2CC1S(C)(=O)=O (centres unmarked) [Example 1, 1-Acetoxy-5-chloro-2-methylsulfonylindane]",Reduction in cumulative milk consumption as % of the control,female NMRI mice,81 % of the control
same,melting point,,136 °C
